Here are results for ten molecules from US20170368034A1, “THIOTRIAZOLE COMPOUND AND ITS USE IN PARASITIC PROTOZOAL INFECTIONS” (GlaxoSmithKline Intellectual Property Development Limited, priority 2014, published 2017).

One data set deals with P. falciparum. In words: P. falciparum in vivo efficacy assay (P. falciparum mouse model). To be noted: for AUCED90: area under the concentration-time curve at ED90, P. falciparum mouse model; for ED90: dose that eradicates 90 per cent of parasitemia, NOD-scid IL2R_null mice engrafted with human erythrocytes. Also on record: species or system Plasmodium falciparum. The protocol:
P. Falciparum In Vivo Efficacy Assay.
Antimalarial in vivo efficacy was determined using the P. falciparum mouse model following the procedure described in: Jimenez-Diaz, M. B., Mulet, T., Viera, S., Gómez, V., Garuti, H., Ibañez, J., Alvarez-Doval, A., Shlutz, D. L., Martinez, A., Improved Murine Model Of Malaria Using Plasmodium falciparum (Competent Strains and Non-Myelodepleted NOD-scid IL2R_null
Mice Engrafted with Human Erythrocytes) Antimicrob. Agents Chemother 2009, 53 (10), 4533-4536

In data set [1] the test system is P. falciparum infected erythrocytes. The data set can be described thus: P. falciparum growth inhibition assay ([3H]hypoxanthine incorporation). It is filed as cell-based. To be noted: Plasmodium falciparum, Erythrocyte, 0.5% parasitemia (ring stage), 2% hematocrit, 48 h total incubation, read-out: PflC50. The protocol:
P. falciparum Growth Inhibition Assay. The sensitivity of P. falciparum infected erythrocytes to the compound is determined in triplicate using the [^3H]hypoxanthine incorporation method with an inoculum of 0.5% parasitemia (ring stage) and 2% hematocrit. The parasites were grown in RPMI 1640, 25 mM HEPES and supplemented with […]. Plates are incubated at 37° C., 5% CO2, 5% O2, 90% N2. After 24 h of incubation, [3H]hypoxanthine is added and plates are incubated for another 24 h. After that period, plates are harvested on a glass fiber filter using a TOMTEC Cell harvester 96. Filters are dried and melt on scintillator sheets and the bound radioactivity is quantified by use of a Wallac Microbeta Trilux (Model 1450 LS-Perkin Elmer). IC50s are determined using Grafit 5 program (Grafit program; Erithacus Software, Horley, Surrey, United Kingdom).

Data set [2] is described as follows: Equilibrium solubility assessment in biorelevant media. It is filed as physicochemical. Conditions: thermodynamic from solid, room temperature. The protocol: Compound's equilibrium solubility was measured at 4 h room temperature in four biologically relevant fluids: Fasted State-(Simulated Intestinal Fluid (FaSSIF), Fed State Simulated IntestinalFluid (FeSSIF), Simulated Gastric Fluid (SGF) and Phosphate Buffered Saline (PBS).
Organic solvents of HPLC grade were used. Ultra pure water (Milli-Q grade) was used. Buffers were prepared with ultra pure water and filtered using 0.45 μ nylon filters.
Determination of equilibrium solubility (assuming chemical stability in the desired solvent is not a problem).
a) 1 mg of solid compound was weighted in one 4 mL glass vial and 1 mL of the corresponding medium freshly prepared (SGF, FaSSIF, FeSSIF or PBS) was added. All these samples were prepared by duplicate.
b) The samples were stirred (roller mixer) for 4 hr at room temperature. If required, additional solid compound (0.1 mg) was added to maintain excess of it (saturated solutions).
c) After 4 hours, the samples were centrifuged (10000 rpm, 10 min.) and the supernatants were transfer to an HPLC vial and analysed by LC-MS (previous dilution with mobile phase when needed).
d) The pH of the final solution in each sample was measured with a pH-meter (WTW pH330i and a pH-electrode Sentix 41).
All supernatants were analysed by LC-MS. Quantification of those samples was carried out against calibration curves obtained from 1 mg/mL DMSO (Aldrich cat. ref.: 27685-5) stock solutions, by dilution with the mobile phase used in the chromatography. Depending on the solubility range, U.V. (1 μg/mL to 100 μg/mL) or MS (1 μg/mL to 1 ng/mL) detector were used in the quantification.
The analysis of all LC-MS data was performed with MassLynx 3.4 software and Analyst 1.4.2. Statistical and graphic analysis of data was performed using Microsoft Excel. The concentration (μM) and solubility (μg/ml) for each compound was calculated using the peak areas from the sample and those from the calibration curve.

The conditions of data set [3]: p698 and Table 2 p699; cited from earlier work.
The mark [4] stands for this setting: FaSSIF (fasted state simulated intestinal fluid), fassif, Fasted state simulated intestinal fluid, read-out: FaSSIF solubility.
[5] abbreviates: FeSSIF (fed state simulated intestinal fluid), fessif, Fed state simulated intestinal fluid, read-out: FeSSIF solubility.
Setting [6] is: PBS (phosphate buffered saline), aqueous buffer, Phosphate buffered saline, read-out: PBS solubility.
Setting [7] is: SGF (simulated gastric fluid), Simulated gastric fluid, read-out: SGF solubility.

Values after ≈ are worked out from the molar mass of the structure shown. Where two headings read alike, the source gives them in different places. Where only a bound is given, the exact number is not on record here.

In the data set on P. falciparum, `Cc1[nH]c2ccccc2c1C(=O)C(C)Sc1nnc(-c2ccccc2Br)[nH]1` (stereo not drawn) [drawing 22] displayed an AUCED90 of less than 0.05 μg.h.ml-1day-1 and an ED90 of 7.31 mg/kg.

For the molecule `Cc1[nH]c2ccccc2c1C(=O)C(C)Sc1nnc(-c2ccccc2Br)[nH]1` (stereo not drawn) [drawing 19], the IC50 in data set [1] fell in the range of 44 to 60 nM.

In the case of `O=C(CSc1nc(-c2ccncc2)n[nH]1)c1c[nH]c2ccccc12` [drawing 18], the IC50 in data set [1] was greater than 5000 nM.

In the data set with P. falciparum, `C[C@@H](Sc1nc(-c2c(Cl)cncc2Cl)n[nH]1)C(=O)c1c[nH]c2ccccc12` [drawing 24] registered an AUCED90 of 0.17 μg.h.ml-1day-1 and an ED90 of 2.2 mg/kg.

A word on the solubility: it is how much of the substance goes into solution per volume. For the molecule `C[C@@H](Sc1nc(-c2c(Cl)cncc2Cl)n[nH]1)C(=O)c1c[nH]c2ccccc12` [drawing 27], the solubility at 4 h in data set [2] (setting [4]) was 216 µg/mL (≈ 516 µM); in data set [2] (setting [5]), 578 to 675 µg/mL (≈ 1380 to 1610 µM); in data set [2] (setting [6]), 169 to 289 µg/mL (≈ 404 to 691 µM); in data set [2] (setting [7]) it was 15 to 76 µg/mL (≈ 35.9 to 182 µM).

Turning to `Cc1[nH]c2ccccc2c1C(=O)C(C)Sc1nnc(-c2ccccc2Br)[nH]1` (stereo not drawn) [drawing 25], the solubility at 4 h was 37 µg/mL (≈ 83.8 µM) in data set [2] (setting [4]), 181 µg/mL (≈ 410 µM) in data set [2] (setting [5]), less than 0.1 µg/mL in data set [2] (setting [6]) and less than 0.1 µg/mL in data set [2] (setting [7]).

With `CC(Sc1nc(-c2c(Cl)cncc2Cl)n[nH]1)C(=O)c1c[nH]c2ccccc12` (stereo not drawn) [drawing 26], the solubility at 4 h in data set [2] (setting [4]) is 168 µg/mL (≈ 402 µM).

With `CC(Sc1nc(-c2c(Cl)cncc2Cl)n[nH]1)C(=O)c1c[nH]c2ccccc12` (stereo not drawn) [drawing 20], the IC50 in data set [1] worked out at 52 nM.

For `C[C@@H](Sc1nc(-c2c(Cl)cncc2Cl)n[nH]1)C(=O)c1c[nH]c2ccccc12` [drawing 21], in data set [1], the IC50 is 19 to 53 nM.

With `O=C(CSc1nc(-c2ccncc2)n[nH]1)c1c[nH]c2ccccc12` [Compound 32], the “activity in the assays of Shah et al.” value in data set [3] was “inactive”.
